Test results: ChEMBL document CHEMBL5550089, “Discovery of thiophen-2-ylmethylene bis-dimedone derivatives as novel WRN inhibitors for treating cancers with microsatellite instability” (Bioorg Med Chem, 2024)
The source made the active and inactive calls. The rule behind the calls is not given here.

Tests used:
[1] = test system: HCT-116; assay: Cytotoxicity against human HCT-116 cells assessed as cell viability at 80 uM incubated for 3 days by CellTiter 96 Aqueous One Solution Proliferation Assay; assay type: functional; details: HCT-116, 72 h, time 3 day, read-out: Activity
[2] = target: Bifunctional 3'-5' exonuclease/ATP-dependent helicase WRN (Homo sapiens, UniProt Q14191); assay: Induction of WRN thermal stability in human HCT-116 cells; assay type: cell-based
Chain of Bifunctional 3'-5' exonuclease/ATP-dependent helicase WRN (Q14191 whole entry): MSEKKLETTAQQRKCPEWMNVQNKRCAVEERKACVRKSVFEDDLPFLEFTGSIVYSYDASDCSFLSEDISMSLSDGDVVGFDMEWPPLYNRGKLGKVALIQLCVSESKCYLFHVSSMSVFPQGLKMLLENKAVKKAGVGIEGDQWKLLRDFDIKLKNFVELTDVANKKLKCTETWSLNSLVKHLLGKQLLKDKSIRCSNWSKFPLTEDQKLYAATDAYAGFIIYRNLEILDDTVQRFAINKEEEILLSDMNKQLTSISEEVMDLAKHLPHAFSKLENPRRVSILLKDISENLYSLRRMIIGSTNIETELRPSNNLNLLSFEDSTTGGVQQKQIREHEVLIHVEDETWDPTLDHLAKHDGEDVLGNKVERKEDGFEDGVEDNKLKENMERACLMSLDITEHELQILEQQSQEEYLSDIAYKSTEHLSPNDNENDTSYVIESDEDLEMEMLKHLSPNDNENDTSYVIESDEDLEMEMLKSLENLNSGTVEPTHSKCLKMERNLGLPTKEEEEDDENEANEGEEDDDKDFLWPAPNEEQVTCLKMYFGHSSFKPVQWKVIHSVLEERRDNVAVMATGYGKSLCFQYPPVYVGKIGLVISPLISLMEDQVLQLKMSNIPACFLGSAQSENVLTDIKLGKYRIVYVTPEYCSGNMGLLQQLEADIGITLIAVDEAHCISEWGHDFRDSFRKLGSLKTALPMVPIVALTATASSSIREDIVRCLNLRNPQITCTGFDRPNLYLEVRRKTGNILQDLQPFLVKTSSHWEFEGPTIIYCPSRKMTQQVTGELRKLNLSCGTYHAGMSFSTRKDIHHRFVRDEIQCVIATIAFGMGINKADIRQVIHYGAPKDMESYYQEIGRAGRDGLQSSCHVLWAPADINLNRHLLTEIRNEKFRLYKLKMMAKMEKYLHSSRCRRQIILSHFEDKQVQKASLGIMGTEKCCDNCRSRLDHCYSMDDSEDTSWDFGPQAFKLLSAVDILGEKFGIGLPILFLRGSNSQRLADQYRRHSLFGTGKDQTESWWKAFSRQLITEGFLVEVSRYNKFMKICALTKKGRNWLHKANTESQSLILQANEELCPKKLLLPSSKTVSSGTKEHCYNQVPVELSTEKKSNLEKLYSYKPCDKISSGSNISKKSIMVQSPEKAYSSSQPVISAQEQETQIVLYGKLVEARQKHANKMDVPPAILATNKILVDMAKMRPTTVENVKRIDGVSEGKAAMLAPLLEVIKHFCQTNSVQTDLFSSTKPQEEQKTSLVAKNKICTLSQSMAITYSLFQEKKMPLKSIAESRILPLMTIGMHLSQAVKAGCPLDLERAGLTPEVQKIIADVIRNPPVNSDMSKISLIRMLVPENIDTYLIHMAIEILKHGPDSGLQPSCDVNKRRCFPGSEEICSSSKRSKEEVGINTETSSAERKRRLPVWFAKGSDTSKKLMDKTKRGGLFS

Activity [2] | Structure (SMILES) | viability at 80 µM [1] [%]
– | CCOC(=O)c1ccc(-c2ccc(C(C3=C(O)CC(C)(C)CC3=O)C3=C(O)CC(C)(C)CC3=O)s2)cc1 | 18.9
– | CC1(C)CC(=O)C(C(C2=C(O)CC(C)(C)CC2=O)c2ccc(-c3ccn[nH]3)s2)=C(O)C1 | 68.6
– | CC1(C)CC(=O)C(C(C2=C(O)CC(C)(C)CC2=O)c2cccs2)=C(O)C1 | 76.5
Active | CCC(=O)OCN1C(=O)C=CC1=O | –
– | COCc1ccc(-c2ccc(C(C3=C(O)CC(C)(C)CC3=O)C3=C(O)CC(C)(C)CC3=O)s2)cc1 | 24.6
– | CC1(C)CC(=O)C(C(C2=C(O)CC(C)(C)CC2=O)c2ccc(-c3cccnc3)s2)=C(O)C1 | 18.9
– | COc1ccc2cc(-c3ccc(C(C4=C(O)CC(C)(C)CC4=O)C4=C(O)CC(C)(C)CC4=O)s3)ccc2c1 | 20.1
– | CCc1ccc(C(C2=C(O)CC(C)(C)CC2=O)C2=C(O)CC(C)(C)CC2=O)s1 | 43.4
– | CC1(C)CC(=O)C(C(C2=C(O)CC(C)(C)CC2=O)c2ccc(-c3ccc(C(C)(C)C)cc3)s2)=C(O)C1 | 12.9
– | COc1ccc(-c2ccc(C(C3=C(O)CC(C)(C)CC3=O)C3=C(O)CC(C)(C)CC3=O)s2)cc1 | 6.9
– | CCOc1cccc(-c2sc(C(C3=C(O)CC(C)(C)CC3=O)C3=C(O)CC(C)(C)CC3=O)cc2[N+](=O)[O-])c1 | 5.3
– | CC1(C)CC(=O)C(C(C2=C(O)CC(C)(C)CC2=O)c2ccc(-c3ccccc3F)s2)=C(O)C1 | 12.4
– | CC1(C)CC(=O)C(C(C2=C(O)CC(C)(C)CC2=O)c2ccc(I)s2)=C(O)C1 | 15.9
– | Cc1ccc(S(=O)(=O)c2ccc(C(C3=C(O)CC(C)(C)CC3=O)C3=C(O)CC(C)(C)CC3=O)s2)cc1 | 18
– | CC1(C)CC(=O)C(C(C2=C(O)CC(C)(C)CC2=O)c2ccc(-c3ccc(F)cc3)s2)=C(O)C1 | 3.5
– | CC1(C)CC(=O)C(C(C2=C(O)CC(C)(C)CC2=O)c2cc([N+](=O)[O-])cs2)=C(O)C1 | 74.9
– | Cc1ccc(C(C2=C(O)CC(C)(C)CC2=O)C2=C(O)CC(C)(C)CC2=O)s1 | 63.8
